Where a name gives a salt, the structure may show the parent alone.
Tests used:
Bcl-2 protein = Bcl-2 protein (histag-Bcl-2, UniProtKB P10415) (Homo sapiens (Human), UniProt P10415); assay: Inhibition of Bcl-2 by the fluorescence polarisation technique; assay type: binding; settings: fluorescence polarisation test; incubation for 2 hours; read-out: IC50 (nM) Bcl-2 FP
Text: For partial inhibitors, the percentage fluorescence polarisation inhibition for a given concentration of the test compound is indicated.

[1] = tested on: RS4; 11 leukaemia cell line; assay: In vitro cytotoxicity, Microculture Tetrazolium Assay (MTT); assay type: cell-based; settings: 11 cells exposed for 48 hours
Protocol: The cytotoxicity studies were carried out on the RS4; 11 leukaemia cell line and on H146 small Cell Lung Carcinoma cell line. The cells are distributed onto microplates and exposed to the test compounds for 48 hours. The cell viability is then quantified by a colorimetric assay, the Microculture Tetrazolium Assay (Cancer Res., 1987, 47, 939-942).

Bcl-2 protein, sequence (P10415 whole entry): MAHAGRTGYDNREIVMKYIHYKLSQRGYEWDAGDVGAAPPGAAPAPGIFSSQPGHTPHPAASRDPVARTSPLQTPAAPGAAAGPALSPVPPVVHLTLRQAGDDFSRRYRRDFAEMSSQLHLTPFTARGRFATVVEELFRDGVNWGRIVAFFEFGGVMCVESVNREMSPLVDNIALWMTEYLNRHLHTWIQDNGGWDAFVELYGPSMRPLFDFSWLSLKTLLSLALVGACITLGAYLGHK

| SMILES | IC50 (Bcl-2 protein) [nM] | IC50 ([1]; Homo sapiens) [nM] | IC50 [1] [nM] |
| --- | --- | --- | --- |
| Cc1c(C(=O)N(C)c2ccc(O)cc2)cc(-c2cc3c(cc2C(=O)N2Cc4ccccc4C[C@H]2CN2CCOCC2)CN(C(=O)CCC2CCCCC2)CC3)n1C [Example 132, 5-[2-(3-Cyclohexylpropanoyl)-7-[(3S)-3-(morpholin-4-ylmethyl)-1,2,3,4-tetrahydroisoquinoline-2-carbonyl]-1,2,3,4-tetrahydroisoquinolin-6-yl]-N-(4-hydroxyphenyl)-N,1,2-trimethyl-1H-pyrrole-3-carboxamide] | 4.6 | 32 | – |
| Cc1c(C(=O)N(C)c2ccc(O)cc2)cc(-c2cc3c(cc2C(=O)N2Cc4ccccc4C[C@H]2C)CN(C(=O)OC2CCC(NC(=O)OC(C)(C)C)CC2)CC3)n1C (stereo partly drawn) [Example 800, (1r,4r)-4-{[(tert-Butoxy)carbonyl]amino}cyclohexyl 6-{4-[(4-hydroxyphenyl)(methyl)carbamoyl]-1,5-dimethyl-1H-pyrrol-2-yl}-7-[(3R)-3-methyl-1,2,3,4-tetrahydroisoquinoline-2-carbonyl]-1,2,3,4-tetrahydroisoquinoline-2-carboxylate] | 2 | – | 3.2 |
| Cc1c(C(=O)N(C)c2ccc(O)cc2)cc(-c2cc3c(cc2C(=O)N2Cc4ccccc4C[C@H]2C)CN(C(=O)Oc2cccc(OCCN(C)C)c2)CC3)n1C [Example 434, 3-[2-(Dimethylamino)ethoxy]phenyl 6-{4-[(4-hydroxyphenyl)(methyl)carbamoyl]-1,5-dimethyl-1H-pyrrol-2-yl}-7-[(3R)-3-methyl-1,2,3,4-tetrahydroisoquinoline-2-carbonyl]-1,2,3,4-tetrahydrisoquinoline-2-carboxylate] | 2.9 | – | 1.6 |
| Cc1c(C(=O)N(C)c2ccc(O)cc2)cc(-c2cc3c(cc2C(=O)N2Cc4ccccc4C[C@H]2C)CN(C(=O)Nc2ccccc2)CC3)n1C [Example 253, 6-{4-[(4-Hydroxyphenyl)(methyl)carbamoyl]-1,5-dimethyl-1H-pyrrol-2-yl}-7-[(3R)-3-methyl-1,2,3,4-tetrahydroisoquinoline-2-carbonyl]-N-phenyl-1,2,3,4-tetrahydroisoquinoline-2-carboxamide] | 5.2 | 22 | – |
| Cc1ccc(OC(=O)N2CCc3cc(-c4cc(C(=O)N(c5ccc(O)cc5)c5cc(C#N)n(C)c5C)c(C)n4C)c(C(=O)N4Cc5ccccc5C[C@H]4CN4CCOCC4)cc3C2)cc1 [Example 805, Tolyl 6-[4-[(5-cyano-1,2-dimethyl-1H-pyrrol-3-yl)-(4-hydroxyphenyl)carbamoyl]-1,5-dimethyl-1H-pyrrol-2-yl]-7-[(3S)-3-(morpholinomethyl)-3,4-dihydro-1H-isoquinoline-2-carbonyl]-3,4-dihydro-1H-isoquinoline-2-carboxylate hydrochloride] | 3.1 | – | 0.12 |
| Cc1c(C(=O)N(C)c2ccccc2)cc(-c2cc3c(cc2C(=O)N2Cc4ccccc4C[C@H]2CN2CCOCC2)CN(C(=O)Oc2ccc4cc[nH]c4c2)CC3)n1C [Example 629, 1H-Indol-6-yl 6-{1,5-dimethyl-4-[methyl(phenyl)carbamoyl]-1H-pyrrol-2-yl}-7-[(3S)-3-(morpholin-4-ylmethyl)-1,2,3,4-tetrahydroisoquinoline-2-carbonyl]-1,2,3,4-tetrahydroisoquinoline-2-carboxylate] | 7.2 | 9 | – |
| C[C@@H]1Cc2ccccc2CN1C(=O)c1cc2c(cc1-c1cc(C(=O)N(C)c3ccc(O)cc3)c3n1CCCC3)CCN(C(=O)N1CCC(c3ccccc3)C1)C2 (stereo partly drawn) [Example 67, N-(4-Hydroxyphenyl)-N-methyl-3-{7-[(3R)-3-methyl-1,2,3,4-tetrahydroisoquinoline-2-carbonyl]-2-(3-phenylpyrrolidine-1-carbonyl)-1,2,3,4-tetrahydroisoquinolin-6-yl}-5,6,7,8-tetrahydroindolizine-1-carboxamide] | 9.4 | 51 | – |
| C[C@@H]1Cc2ccccc2CN1C(=O)c1cc2c(cc1-c1cc(C(=O)N(C)c3ccc(O)cc3)c3n1CCCC3)CCN(C(=O)C1(c3ccccc3)CC1)C2 [Example 109, N-(4-Hydroxyphenyl)-N-methyl-3-{7-[(3R)-3-methyl-1,2,3,4-tetrahydroisoquinoline-2-carbonyl]-2-(1-phenylcyclopropanecarbonyl)-1,2,3,4-tetrahydroisoquinolin-6-yl}-5,6,7,8-tetrahydroindolizine-1-carboxamide] | 8.6 | 89 | – |
| C[C@@H]1Cc2ccccc2CN1C(=O)c1cc2c(cc1-c1cc(C(=O)N(C)c3ccc(O)cc3)c3n1CCCC3)CCN(C(=O)N(C)c1ccccc1)C2 [Example 74, 6-{1-[(4-Hydroxyphenyl)(methyl)carbamoyl]-5,6,7,8-tetrahydroindolizin-3-yl}-N-methyl-7-[(3R)-3-methyl-1,2,3,4-tetrahydroisoquinoline-2-carbonyl]-N-phenyl-1,2,3,4-tetrahydroisoquinoline-2-carboxamide] | 6.1 | 94 | – |
| CN(C(=O)c1cc(-c2cc3c(cc2C(=O)N2Cc4ccccc4C[C@H]2CN2CCOCC2)CN(C(=O)Oc2ccc(C(N)=O)cc2)CC3)n2c1CCCC2)c1ccc(O)cc1 [Example 141, 4-Carbamoylphenyl 6-{1-[(4-hydroxyphenyl)(methyl)carbamoyl]-5,6,7,8-tetrahydroindolizin-3-yl}-7-[(3S)-3-(morpholin-4-ylmethyl)-1,2,3,4-tetrahydroisoquinoline-2-carbonyl]-1,2,3,4-tetrahydroisoquinoline-2-carboxylate] | 5.9 | 82 | – |
| Cc1c(C(=O)N(C)c2ccc(O)cc2)cc(-c2cc3c(cc2C(=O)N2Cc4ccccc4C[C@H]2C)CN(C(=O)Cc2ccccc2)C3)n1C [Example 80, N-(4-Hydroxyphenyl)-N,1,2-trimethyl-5-{6-[(3R)-3-methyl-1,2,3,4-tetrahydroisoquinoline-2-carbonyl]-2-(2-phenylacetyl)-2,3-dihydro-1H-isoindol-5-yl}-1H-pyrrole-3-carboxamide] | 5.5 | 71 | – |
| C#Cc1ccc(OC(=O)N2CCc3cc(-c4cc(C(=O)N(C)c5ccc(O)cc5)c(C)n4C)c(C(=O)N4Cc5ccccc5C[C@H]4CN4CCOCC4)cc3C2)cc1 [Example 564, 4-Ethynylphenyl 6-{4-[(4-hydroxyphenyl)(methyl)carbamoyl]-1,5-dimethyl-1H-pyrrol-2-yl}-7-[(3S)-3-(morpholin-4-ylmethyl)-1,2,3,4-tetrahydroisoquinoline-2-carbonyl]-1,2,3,4-tetrahydroisoquinoline-2-carboxylate] | 4.5 | 3.3 | – |
| Cc1c(C(=O)N(C)c2ccc(O)cc2)cc(-c2cc3c(cc2C(=O)N2Cc4ccccc4C[C@H]2CCCN2CCOCC2)CN(C(=O)OC2CCCCC2)CC3)n1C [Example 809, Cyclohexyl 6-{4-[(4-hydroxyphenyl)(methyl)carbamoyl]-1,5-dimethyl-1H-pyrrol-2-yl}-7-[(3R)-3-[3-(morpholin-4-yl)propyl]-1,2,3,4-tetrahydroisoquinoline-2-carbonyl]-1,2,3,4-tetrahydroisoquinoline-2-carboxylate] | 3.1 | 9.8 | – |
| C[C@@H]1Cc2ccccc2CN1C(=O)c1cc2c(cc1-c1cc(C(=O)N(c3ccccc3)c3ccc(O)cc3)c3n1CCCC3)CNC2 [Example 44, N-(4-Hydroxyphenyl)-3-{6-[(3R)-3-methyl-1,2,3,4-tetrahydroisoquinoline-2-carbonyl]-2,3-dihydro-1H-isoindol-5-yl}-N-phenyl-5,6,7,8-tetrahydroindolizine-1-carboxamide] | 13 | 443 | – |
| Cc1c(C(=O)N(C)c2ccccc2)cc(-c2cc3c(cc2C(=O)N2Cc4ccccc4C[C@H]2CN2CCOCC2)CN(C(=O)Oc2cnc4c(ccn4C)c2)CC3)n1C [Example 634, 1-Methyl-1H-pyrrolo[2,3-b]pyridin-5-yl 6-{1,5-dimethyl-4-[methyl(phenyl)carbamoyl]-1H-pyrrol-2-yl}-7-[(3S)-3-(morpholin-4-ylmethyl)-1,2,3,4-tetrahydroisoquinoline-2-carbonyl]-1,2,3,4-tetrahydroisoquinoline-2-carboxylate] | 6.9 | 21 | – |
| Cc1ccc(OC(=O)N2CCc3cc(-c4cc(C(=O)N(C)c5ccc(O)cc5)c(C)n4C)c(C(=O)N4Cc5ccccc5C[C@H]4CN4CCOCC4)cc3C2)cc1 [Example 139, 4-Methylphenyl 6-{4-[(4-hydroxyphenyl)(methyl)carbamoyl]-1,5-dimethyl-1H-pyrrol-2-yl}-7-[(3S)-3-(morpholin-4-ylmethyl)-1,2,3,4-tetrahydroisoquinoline-2-carbonyl]-1,2,3,4-tetrahydroisoquinoline-2-carboxylate] | 5.1 | 0.84 | – |
| C[C@@H]1Cc2ccccc2CN1C(=O)c1cc2c(cc1-c1cc(C(=O)N(C)c3ccc(O)cc3)c3n1CCCC3)CN(C(=O)CCc1ccccc1)C2 [Example 15, N-(4-Hydroxyphenyl)-N-methyl-3-{6-[(3R)-3-methyl-1,2,3,4-tetrahydroisoquinoline-2-carbonyl]-2-(3-phenylpropanoyl)-2,3-dihydro-1H-isoindol-5-yl}-5,6,7,8-tetrahydroindolizine-1-carboxamide] | 19 | 93 | – |
| Cc1c(C(=O)N(C)c2ccc(O)cc2)cc(-c2cc3c(cc2C(=O)N2Cc4ccccc4C[C@H]2CN2CCOCC2)CN(C(=O)Oc2ccc(C#N)cc2)CC3)n1C [Example 146, 4-Cyanophenyl 6-{4-[(4-hydroxyphenyl)(methyl)carbamoyl]-1,5-dimethyl-1H-pyrrol-2-yl}-7-[(3S)-3-(morpholin-4-ylmethyl)-1,2,3,4-tetrahydroisoquinoline-2-carbonyl]-1,2,3,4-tetrahydroisoquinoline-2-carboxylate] | 2.8 | 6 | – |
